Data taken from paper PMC11472320, “Computationally Driven Discovery of a BCR-ABL1 Kinase Inhibitor with Activity in Multidrug-Resistant Chronic Myeloid Leukemia” (Journal of Medicinal Chemistry, 2024).
Values joined by “and” are separate entries in the source; they are usually repeats but may differ in a detail not shown here. Equal entries are not always repeated. Where two headings read alike, the source gives them in different places.

Legend:
[1] = Abraham ANMR value by NMR (CDCl3 vs DMSO-d6); type: physicochemical
Text: Previously, intramolecular N–H–F hydrogen bonds (HBs) have been proposed as a strategy to reduce P-gp-mediated efflux and improve passive permeability, as highlighted in the discovery of the brain-penetrant EGFR inhibitor, AZD-3759 (Figure 2A).[37]−[40] […] Consistent with this work, we conducted an NMR study of the EGFR inhibitor 7a and the BCR-ABL1 inhibitor 8a in deuterated chloroform (CDCl3) and in the more polar, HB-accepting dimethyl sulfoxide (DMSO-d6). […] This finding is further supported by the lack of ^1JNH-F coupling (≤1 Hz) in 7a and 8a, as contrasted with bona fide intramolecular HBs to fluorine, which typically have ^1JNH-F coupling constants >10 Hz as exemplified by 9 with its ^1JNH-F of 19.1 Hz.[41],[43]

MDCKII-MDR1 cells [2] = conditions: cited from earlier work
[3] = cited from earlier work
[4] = cited from earlier work; remark: listed apart in the source
mutant BCR-ABL1 kinases = assay: Biochemical kinase inhibition, summary statements; parameters: species or system human; conditions: read-out: IC50 against mutant BCR-ABL1 kinases
Ph+ CML = assay: Activity in Ph+ CML (Figure 2B annotation); type: cell-based; conditions: annotation in Figure 2B
Lipophilicity logD7.4 = type: physicochemical; conditions: pH 7.4
Aqueous solubility = type: physicochemical; conditions: pH 7.4
[5] = Metabolic stability in hepatocytes; type: in vitro ADME, human; conditions: for hepatocyte CLint: both sexes, read-out: HEPClint (H); for hepatocyte CLint / t1/2 (H): human hepatocytes
Text: Metabolic stability in hepatocytes
Table S4. Hepatocyte details used in the hepatocyte stability assay.
Human Hepatocytes, Mixed-Gender BiolVT (Cat No. X008001)
Mouse Hepatocytes, Male-Gender BiolVT (Cat No. M005052)

[6] = Plasma protein binding by equilibrium dialysis; type: in vitro ADME; conditions: human plasma
in vitro [7] = conditions: dog, MDCK-MDR1
MDR1 (P-gp) = assay: in vitro; conditions: dog, MDCK-MDR1
MDR1 = assay: in vitro; conditions: dog, MDCK-MDR1
in vitro [8] = conditions: human, Caco-2
Caco-2 cells = assay: Caco-2 permeability; conditions: for Recovery% (BL-AP) / efflux ratio: Table S9
MDCKII-MDR1 cells [9] = assay: MDCKII-MDR1 permeability; conditions: for Recovery% (BL-AP): Table S7; for MDCKII-MDR1 Efflux Ratio: n = 2
BCR-ABL1 wt = BCR-ABL1 wt (Homo sapiens, UniProt P00519); assay: KinaseProfiler enzymatic radiometric kinase assay; conditions: read-out: Kinase IC50 BCR-ABL1 wt; [ATP] = 10 µM, n = 2
cSRC wt = cSRC wt (Homo sapiens, UniProt P12931); assay: KinaseProfiler enzymatic radiometric kinase assay
CDC2L5 = biological target: T1, CDC2L5 (Homo sapiens, UniProt Q14004); assay: KINOMEScan; type: binding; conditions: read-out: Percent Control
T1 construct: purchased Eurofins DiscoverX (KINOMEscan)

PFCDPK1(P.falciparum) = biological target: T2, PFCDPK1(P.falciparum) (Plasmodium falciparum, UniProt P62344); assay: KINOMEScan; type: binding; conditions: read-out: Percent Control
T2 construct: purchased Eurofins DiscoverX (KINOMEscan)

PFPK5(P.falciparum) = biological target: T3, PFPK5(P.falciparum) (Plasmodium falciparum, UniProt P61075); assay: KINOMEScan; type: binding; conditions: read-out: Percent Control
T3 construct: purchased Eurofins DiscoverX (KINOMEscan)

PKNB(M.tuberculosis) = biological target: T4, PKNB(M.tuberculosis) (Mycobacterium tuberculosis, UniProt P9WI81); assay: KINOMEScan; type: binding; conditions: read-out: Percent Control
T4 construct: purchased Eurofins DiscoverX (KINOMEscan)

PRKCD = biological target: T5, PRKCD (Homo sapiens, UniProt Q05655); assay: KINOMEScan; type: binding; conditions: read-out: Percent Control
T5 construct: purchased Eurofins DiscoverX (KINOMEscan)

PRKCE = biological target: T6, PRKCE (Homo sapiens, UniProt Q02156); assay: KINOMEScan; type: binding; conditions: read-out: Percent Control
T6 construct: purchased Eurofins DiscoverX (KINOMEscan)

PRKCH = biological target: T7, PRKCH (Homo sapiens, UniProt P24723); assay: KINOMEScan; type: binding; conditions: read-out: Percent Control
T7 construct: purchased Eurofins DiscoverX (KINOMEscan)

PRKCI = biological target: T8, PRKCI (Homo sapiens, UniProt P41743); assay: KINOMEScan; type: binding; conditions: read-out: Percent Control
T8 construct: purchased Eurofins DiscoverX (KINOMEscan)

PRKCQ = biological target: T9, PRKCQ (Homo sapiens, UniProt Q04759); assay: KINOMEScan; type: binding; conditions: read-out: Percent Control
T9 construct: purchased Eurofins DiscoverX (KINOMEscan)

PRKD1 = biological target: T10, PRKD1 (Homo sapiens, UniProt Q15139); assay: KINOMEScan; type: binding; conditions: read-out: Percent Control
T10 construct: purchased Eurofins DiscoverX (KINOMEscan)

PRKD3 = biological target: T11, PRKD3 (Homo sapiens, UniProt O94806); assay: KINOMEScan; type: binding; conditions: read-out: Percent Control
T11 construct: purchased Eurofins DiscoverX (KINOMEscan)

PRP4 = biological target: T12, PRP4 (Homo sapiens, UniProt Q13523); assay: KINOMEScan; type: binding; conditions: read-out: Percent Control
T12 construct: purchased Eurofins DiscoverX

[10] = pH 7.4; cited from earlier work
[11] = pH 7.4; cited from earlier work; remark: listed apart in the source
[12] = cited from earlier work; remark: listed apart in the source
[13] = parameters: method as in earlier work; conditions: human plasma; cited from earlier work
P-glycoprotein (P-gp) = conditions: Figure 1A; cited from earlier work

T1 sequence (Q14004 whole entry): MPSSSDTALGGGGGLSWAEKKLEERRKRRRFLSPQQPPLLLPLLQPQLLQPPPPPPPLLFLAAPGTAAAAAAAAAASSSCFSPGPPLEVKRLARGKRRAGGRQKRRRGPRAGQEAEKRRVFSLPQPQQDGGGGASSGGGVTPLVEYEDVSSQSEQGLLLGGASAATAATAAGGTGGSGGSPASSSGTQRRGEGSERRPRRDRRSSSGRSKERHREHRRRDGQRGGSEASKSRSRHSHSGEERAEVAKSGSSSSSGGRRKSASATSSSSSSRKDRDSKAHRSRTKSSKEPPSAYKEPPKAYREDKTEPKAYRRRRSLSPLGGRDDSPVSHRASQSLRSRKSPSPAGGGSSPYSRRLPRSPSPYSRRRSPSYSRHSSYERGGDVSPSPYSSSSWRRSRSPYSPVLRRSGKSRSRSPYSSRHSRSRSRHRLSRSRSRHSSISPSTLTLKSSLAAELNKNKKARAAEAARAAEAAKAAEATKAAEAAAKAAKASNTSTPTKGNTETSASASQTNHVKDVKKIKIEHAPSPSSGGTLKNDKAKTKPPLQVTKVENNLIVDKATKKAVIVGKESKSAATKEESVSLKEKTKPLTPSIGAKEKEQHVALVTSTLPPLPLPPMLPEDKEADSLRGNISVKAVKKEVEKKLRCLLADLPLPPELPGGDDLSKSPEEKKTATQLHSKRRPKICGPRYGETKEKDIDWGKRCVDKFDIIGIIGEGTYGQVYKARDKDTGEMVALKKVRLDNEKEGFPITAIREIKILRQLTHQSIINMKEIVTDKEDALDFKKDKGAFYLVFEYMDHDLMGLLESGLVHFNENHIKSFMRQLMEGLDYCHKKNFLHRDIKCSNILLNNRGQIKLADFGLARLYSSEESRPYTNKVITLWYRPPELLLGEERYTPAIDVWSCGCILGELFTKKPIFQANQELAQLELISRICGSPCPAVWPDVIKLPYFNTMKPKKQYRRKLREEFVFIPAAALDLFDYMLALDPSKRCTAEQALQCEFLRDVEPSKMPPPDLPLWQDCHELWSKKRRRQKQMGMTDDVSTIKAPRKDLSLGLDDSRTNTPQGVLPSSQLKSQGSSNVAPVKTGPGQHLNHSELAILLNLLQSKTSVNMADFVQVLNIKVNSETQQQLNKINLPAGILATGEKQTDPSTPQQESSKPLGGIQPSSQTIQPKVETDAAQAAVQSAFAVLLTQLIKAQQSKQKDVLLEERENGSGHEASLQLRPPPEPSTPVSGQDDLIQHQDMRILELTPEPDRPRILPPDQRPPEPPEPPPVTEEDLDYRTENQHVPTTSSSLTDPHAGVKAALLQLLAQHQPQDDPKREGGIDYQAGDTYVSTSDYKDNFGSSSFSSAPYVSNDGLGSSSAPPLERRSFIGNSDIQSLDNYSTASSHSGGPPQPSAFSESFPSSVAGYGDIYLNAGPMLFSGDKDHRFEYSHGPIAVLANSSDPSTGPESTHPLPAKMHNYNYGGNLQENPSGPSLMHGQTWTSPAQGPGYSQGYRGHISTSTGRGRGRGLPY
T12 sequence (Q13523 whole entry): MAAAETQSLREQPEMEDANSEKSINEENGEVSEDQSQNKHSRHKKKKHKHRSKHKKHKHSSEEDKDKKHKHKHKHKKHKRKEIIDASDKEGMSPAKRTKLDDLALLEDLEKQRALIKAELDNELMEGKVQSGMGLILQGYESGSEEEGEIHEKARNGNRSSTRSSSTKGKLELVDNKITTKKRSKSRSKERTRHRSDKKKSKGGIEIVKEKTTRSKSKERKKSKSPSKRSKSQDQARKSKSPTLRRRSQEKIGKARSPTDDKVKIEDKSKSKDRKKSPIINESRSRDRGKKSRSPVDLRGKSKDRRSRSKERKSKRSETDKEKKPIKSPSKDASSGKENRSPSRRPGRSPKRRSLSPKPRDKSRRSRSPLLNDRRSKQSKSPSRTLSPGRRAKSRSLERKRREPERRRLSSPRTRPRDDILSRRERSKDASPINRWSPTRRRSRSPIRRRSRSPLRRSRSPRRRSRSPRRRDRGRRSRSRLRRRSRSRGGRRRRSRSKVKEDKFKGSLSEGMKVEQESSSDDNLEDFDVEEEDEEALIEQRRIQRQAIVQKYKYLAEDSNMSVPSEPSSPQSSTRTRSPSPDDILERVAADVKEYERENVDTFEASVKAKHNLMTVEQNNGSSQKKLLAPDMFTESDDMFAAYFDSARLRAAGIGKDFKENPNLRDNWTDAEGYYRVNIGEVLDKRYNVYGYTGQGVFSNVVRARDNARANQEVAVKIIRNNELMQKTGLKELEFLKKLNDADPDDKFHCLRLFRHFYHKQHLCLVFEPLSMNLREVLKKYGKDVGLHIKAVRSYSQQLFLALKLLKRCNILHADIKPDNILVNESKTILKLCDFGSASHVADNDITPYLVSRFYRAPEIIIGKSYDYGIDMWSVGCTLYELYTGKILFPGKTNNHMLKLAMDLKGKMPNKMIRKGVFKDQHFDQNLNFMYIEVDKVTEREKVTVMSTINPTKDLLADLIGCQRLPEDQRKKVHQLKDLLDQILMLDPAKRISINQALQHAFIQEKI
T6 sequence (Q02156 whole entry): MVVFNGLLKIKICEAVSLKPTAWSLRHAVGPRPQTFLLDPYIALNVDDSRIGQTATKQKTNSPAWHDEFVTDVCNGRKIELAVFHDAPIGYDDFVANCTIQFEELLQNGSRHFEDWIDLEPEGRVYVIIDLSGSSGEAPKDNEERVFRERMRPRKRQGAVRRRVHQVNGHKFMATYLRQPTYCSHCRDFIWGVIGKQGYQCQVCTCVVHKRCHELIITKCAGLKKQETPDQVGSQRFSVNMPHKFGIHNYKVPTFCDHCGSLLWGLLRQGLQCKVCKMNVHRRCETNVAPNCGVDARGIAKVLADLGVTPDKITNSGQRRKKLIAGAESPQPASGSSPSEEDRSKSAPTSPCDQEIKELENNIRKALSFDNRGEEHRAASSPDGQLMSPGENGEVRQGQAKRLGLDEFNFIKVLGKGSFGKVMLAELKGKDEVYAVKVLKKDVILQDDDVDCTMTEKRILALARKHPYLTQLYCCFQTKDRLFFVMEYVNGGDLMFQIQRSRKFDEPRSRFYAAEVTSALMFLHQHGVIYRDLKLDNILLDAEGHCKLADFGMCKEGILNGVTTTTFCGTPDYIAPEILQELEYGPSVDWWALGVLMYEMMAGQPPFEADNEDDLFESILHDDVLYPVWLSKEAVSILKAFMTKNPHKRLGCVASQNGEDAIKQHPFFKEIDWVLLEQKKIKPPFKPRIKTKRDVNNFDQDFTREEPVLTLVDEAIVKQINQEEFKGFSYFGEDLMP
T11 sequence (O94806 whole entry): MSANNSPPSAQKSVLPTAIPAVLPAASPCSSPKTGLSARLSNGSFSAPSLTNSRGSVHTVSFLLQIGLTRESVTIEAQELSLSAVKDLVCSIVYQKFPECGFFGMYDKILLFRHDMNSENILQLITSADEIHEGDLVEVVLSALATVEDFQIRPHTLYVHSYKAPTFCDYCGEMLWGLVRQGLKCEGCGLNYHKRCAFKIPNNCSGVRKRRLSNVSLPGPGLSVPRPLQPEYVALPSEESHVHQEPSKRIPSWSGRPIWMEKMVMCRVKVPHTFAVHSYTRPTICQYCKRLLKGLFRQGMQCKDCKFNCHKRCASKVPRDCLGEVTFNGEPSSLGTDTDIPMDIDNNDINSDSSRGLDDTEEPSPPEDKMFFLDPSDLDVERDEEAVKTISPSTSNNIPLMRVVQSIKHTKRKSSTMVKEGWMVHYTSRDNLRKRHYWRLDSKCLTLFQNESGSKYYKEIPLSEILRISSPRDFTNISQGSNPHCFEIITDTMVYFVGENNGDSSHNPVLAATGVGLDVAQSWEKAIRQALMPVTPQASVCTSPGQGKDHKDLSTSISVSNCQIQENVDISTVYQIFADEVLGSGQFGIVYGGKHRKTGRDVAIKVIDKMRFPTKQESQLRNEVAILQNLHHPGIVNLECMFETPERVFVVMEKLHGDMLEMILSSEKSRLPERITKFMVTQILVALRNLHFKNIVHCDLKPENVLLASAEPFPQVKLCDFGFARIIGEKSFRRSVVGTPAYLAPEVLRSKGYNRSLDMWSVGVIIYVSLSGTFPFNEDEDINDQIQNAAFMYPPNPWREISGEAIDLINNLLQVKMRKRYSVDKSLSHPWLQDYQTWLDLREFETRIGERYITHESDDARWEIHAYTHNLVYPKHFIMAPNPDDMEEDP
T5 sequence (Q05655 whole entry): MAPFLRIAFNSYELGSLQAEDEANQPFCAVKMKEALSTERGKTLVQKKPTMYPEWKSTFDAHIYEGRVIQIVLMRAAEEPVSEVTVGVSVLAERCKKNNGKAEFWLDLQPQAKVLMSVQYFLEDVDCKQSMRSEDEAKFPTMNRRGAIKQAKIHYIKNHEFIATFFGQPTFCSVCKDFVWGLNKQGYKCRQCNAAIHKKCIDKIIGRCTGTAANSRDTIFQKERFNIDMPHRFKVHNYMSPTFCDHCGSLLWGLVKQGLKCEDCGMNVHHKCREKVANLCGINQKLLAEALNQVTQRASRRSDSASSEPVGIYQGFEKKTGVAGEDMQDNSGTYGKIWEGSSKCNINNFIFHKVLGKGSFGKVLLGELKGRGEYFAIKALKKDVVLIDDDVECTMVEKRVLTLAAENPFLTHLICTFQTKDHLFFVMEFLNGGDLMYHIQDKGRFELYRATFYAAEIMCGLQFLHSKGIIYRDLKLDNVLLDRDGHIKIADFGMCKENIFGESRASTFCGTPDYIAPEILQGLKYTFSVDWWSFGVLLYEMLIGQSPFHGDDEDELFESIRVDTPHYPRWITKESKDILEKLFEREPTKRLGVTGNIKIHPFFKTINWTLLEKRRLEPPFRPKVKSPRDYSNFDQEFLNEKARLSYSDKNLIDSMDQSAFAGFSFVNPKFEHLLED

For `COc1cc2ncnc(Nc3cccc(Cl)c3F)c2cc1OCCON1CCN(C)CC1` [7a], the “Abraham ANMR Value (aniline N-H)” value [1] is given as > 0.30 and 0.31, the P-gp efflux status (MDCKII-MDR1 cells [2]) is given as “Not a P-gp Substrate” and the AMES [3] is given as “Negative”. For the same compound, the Micronucleus [4] was “Negative”.
In the case of `COc1cc(Nc2c(C#N)cnc3cc(OCCON4CCN(C)CC4)c(OC)cc23)c(F)cc1Cl` [8a, 4-((4-Chloro-2-fluoro-5-methoxyphenyl)amino)-6-methoxy-7-(2-((4-methylpiperazin-1-yl)oxy)ethoxy)quinoline-3-carbonitrile], the IC50 (mutant BCR-ABL1 kinases) is reported as less than 1 nM, the “Activity in Ph+ CML” value (Ph+ CML) is reported as “Moderate Activity” and the logD (Lipophilicity logD7.4) is reported as 3.4. The “Aq. Sol.” value (Aqueous solubility) was 43 µM, the “Remaining Percentages” value ([5]; 0.5 min) was 100.00% and the “Remaining Percentages” value ([5]; 15 min) was 69.28%. For the same compound, the “Remaining Percentages” value ([5]; 30 min) was 52.48%, the “Remaining Percentages” value ([5]; 60 min) was 29.45% and the “Remaining Percentages” value ([5]; 90 min) was 15.72%. The “Remaining Percentages” value ([5]; 120 min) was 9.48%, the hepatocyte CLint [5] was 40.5 µL/min/1e6 cells and the “t1/2 (H)” value [5] was 34.2 min. For the same compound, the fraction unbound ([6]; both sexes) was 0.0558, the recovery ([6]; both sexes) was 99.9% and the remaining at 6 h ([6]; both sexes, 6 h) was 92.7%. The “%Unbound” value [6] was 5.58%, the “Abraham ANMR Value (aniline N-H)” value [1] was > 0.30 and 0.40 and the recovery (in vitro [7]) was 79.8%. For the same compound, the Papp A→B (MDR1 (P-gp)) was 0.7 ×10⁻⁶ cm/s, the Papp B→A (MDR1 (P-gp)) was 19.3 ×10⁻⁶ cm/s and the Papp A→B (MDR1) was 0.73 ×10⁻⁶ cm/s. It also gave an efflux ratio (MDR1) of 26.4, a Papp A→B (in vitro [8]) of 1.94 ×10⁻⁶ cm/s and a Papp B→A (in vitro [8]) of 12.1 ×10⁻⁶ cm/s. The efflux ratio (in vitro [8]) was 6.4, the recovery (in vitro [8]) was 61.2% and the “Recovery% (BL-AP)” value (Caco-2 cells) was 72.31%. The “efflux ratio” value (Caco-2 cells) was 6.22, the “Caco-2 Papp (a-b)” value (Caco-2 cells) was 1.9 ×10⁻⁶ cm/s and the “Caco-2 Papp (b-a)” value (Caco-2 cells) was 12.1 ×10⁻⁶ cm/s. The P-gp efflux status (MDCKII-MDR1 cells [9]) was “P-gp Substrate”, the “Recovery% (BL-AP)” value (MDCKII-MDR1 cells [9]) was 64.87% and the “MDCKII-MDR1 Efflux Ratio” value (MDCKII-MDR1 cells [9]) was 27.6. For the same compound, the IC50 (BCR-ABL1 wt) was 1 nM and the IC50 (cSRC wt) was 2 nM.
For `COc1cc2c(Nc3cccc(Cl)c3F)c(C#N)cnc2cc1OCCON1CCN(C)CC1` [11a, 4-((3-Chloro-2-fluorophenyl)amino)-6-methoxy-7-(2-((4-methylpiperazin-1-yl)oxy)ethoxy)quinoline-3-carbonitrile], the “Activity in Ph+ CML” value (Ph+ CML) was “Poor Activity”, the logD (Lipophilicity logD7.4) was 3.3 and the “Aq. Sol.” value (Aqueous solubility) was 14 µM. For the same compound, the “Remaining Percentages” value ([5]; 0.5 min) was 100.00%, the “Remaining Percentages” value ([5]; 15 min) was 82.49% and the “Remaining Percentages” value ([5]; 30 min) was 66.92%. For the same compound, the “Remaining Percentages” value ([5]; 60 min) was 45.06%, the “Remaining Percentages” value ([5]; 90 min) was 29.85% and the “Remaining Percentages” value ([5]; 120 min) was 18.60%. The hepatocyte CLint [5] was 27.9 µL/min/1e6 cells, the “t1/2 (H)” value [5] was 49.7 min and the “Abraham ANMR Value (aniline N-H)” value [1] was 0.40. For the same compound, the recovery (in vitro [7]) was 71.6%, the Papp A→B (MDR1 (P-gp)) was 7.2 ×10⁻⁶ cm/s and the Papp B→A (MDR1 (P-gp)) was 29.6 ×10⁻⁶ cm/s. It also gave a Papp A→B (MDR1) of 7.16 ×10⁻⁶ cm/s, a Papp B→A (MDR1) of 29.6 ×10⁻⁶ cm/s and an efflux ratio (MDR1) of 4.15. It also gave a Papp A→B (in vitro [8]) of 3.66 ×10⁻⁶ cm/s, a Papp B→A (in vitro [8]) of 27.4 ×10⁻⁶ cm/s and an efflux ratio (in vitro [8]) of 7.4. The recovery (in vitro [8]) was 60.5%, the “Recovery% (BL-AP)” value (Caco-2 cells) was 80.51% and the “efflux ratio” value (Caco-2 cells) was 7.49. For the same compound, the “Caco-2 Papp (a-b)” value (Caco-2 cells) was 3.7 ×10⁻⁶ cm/s, the “Caco-2 Papp (b-a)” value (Caco-2 cells) was 27.4 ×10⁻⁶ cm/s and the P-gp efflux status (MDCKII-MDR1 cells [9]) was “Moderate P-gp Substrate”. The “Recovery% (BL-AP)” value (MDCKII-MDR1 cells [9]) was 85.59% and the “MDCKII-MDR1 Efflux Ratio” value (MDCKII-MDR1 cells [9]) was 4.1.
Work on `COc1cc2c(Nc3ccc(Cl)c(OC)n3)c(C#N)cnc2cc1OCCON1CCN(C)CC1` [16a, 4-((5-Chloro-6-methoxypyridin-2-yl)amino)-6-methoxy-7-(2-((4-methylpiperazin-1-yl)oxy)ethoxy)quinoline-3-carbonitrile] yielded a remaining binding at 1 µM (CDC2L5) of 100%, a remaining binding at 1 µM (PFCDPK1(P.falciparum)) of 18% and a remaining binding at 1 µM (PFPK5(P.falciparum)) of 100%. The remaining binding at 1 µM (PKNB(M.tuberculosis)) was 53%, the remaining binding at 1 µM (PRKCD) was 42% and the remaining binding at 1 µM (PRKCE) was 70%. The remaining binding at 1 µM (PRKCH) was 84%, the remaining binding at 1 µM (PRKCI) was 61% and the remaining binding at 1 µM (PRKCQ) was 30%. For the same compound, the remaining binding at 1 µM (PRKD1) was 78%, the remaining binding at 1 µM (PRKD3) was 58% and the remaining binding at 1 µM (PRP4) was 33%.
In the case of `COc1cc(Nc2c(C#N)cnc3cc(OCCCN4CCN(C)CC4)c(OC)cc23)c(Cl)cc1Cl` [Bosutinib, bosutinib], the “Papp(a-b)” value (MDCKII-MDR1 cells [2]; Table S7) is given as 0.38 10-6 cm/s, the “Recovery% (AP-BL)” value (MDCKII-MDR1 cells [2]; Table S7) is given as 56.02% and the “Recovery% (BL-AP)” value (MDCKII-MDR1 cells [2]; Table S7) is given as 65.52%. For the same compound, the “MDCKII-MDR1 Papp (a-b)” value (MDCKII-MDR1 cells [2]; a-b) was 0.4 ×10⁻⁶ cm/s, the P-gp efflux status (MDCKII-MDR1 cells [2]) was “P-gp Substrate” and the logD7.4 [10] was 3.1. For the same compound, the “Aq. Sol.” value [11] was 14 µM, the “Remaining Percentages” value ([12]; 0.5 min) was 100.00% and the “Remaining Percentages” value ([12]; 15 min) was 73.99%. For the same compound, the “Remaining Percentages” value ([12]; 60 min) was 53.95%, the “Remaining Percentages” value ([12]; 90 min) was 34.15% and the “Remaining Percentages” value ([12]; 120 min) was 20.73%. The “%Recovery” value [13] was 94.01%, the “%Unbound” value [13] was 4.52% and the P-gp efflux status (P-glycoprotein (P-gp)) was “P-gp Substrate”.
